The results in this text go back to patent US12612407B2, “Imidazo[2,1-f][1,2,4]triazin-4-amine derivatives as TLR7 agonist” (BEIGENE, LTD., priority 2020, dated 2026).

One may read the EC50 as the concentration giving half of the maximal effect. Lower therefore signals greater potency.

Some results are limits rather than exact numbers.

The first assay concerns the target T1, human TLR7 (Homo sapiens, UniProt Q9NYK1).
T1 construct: host or cells: HEK293 (HEK-Blue hTLR7)
T1 sequence (Q9NYK1 27-1049): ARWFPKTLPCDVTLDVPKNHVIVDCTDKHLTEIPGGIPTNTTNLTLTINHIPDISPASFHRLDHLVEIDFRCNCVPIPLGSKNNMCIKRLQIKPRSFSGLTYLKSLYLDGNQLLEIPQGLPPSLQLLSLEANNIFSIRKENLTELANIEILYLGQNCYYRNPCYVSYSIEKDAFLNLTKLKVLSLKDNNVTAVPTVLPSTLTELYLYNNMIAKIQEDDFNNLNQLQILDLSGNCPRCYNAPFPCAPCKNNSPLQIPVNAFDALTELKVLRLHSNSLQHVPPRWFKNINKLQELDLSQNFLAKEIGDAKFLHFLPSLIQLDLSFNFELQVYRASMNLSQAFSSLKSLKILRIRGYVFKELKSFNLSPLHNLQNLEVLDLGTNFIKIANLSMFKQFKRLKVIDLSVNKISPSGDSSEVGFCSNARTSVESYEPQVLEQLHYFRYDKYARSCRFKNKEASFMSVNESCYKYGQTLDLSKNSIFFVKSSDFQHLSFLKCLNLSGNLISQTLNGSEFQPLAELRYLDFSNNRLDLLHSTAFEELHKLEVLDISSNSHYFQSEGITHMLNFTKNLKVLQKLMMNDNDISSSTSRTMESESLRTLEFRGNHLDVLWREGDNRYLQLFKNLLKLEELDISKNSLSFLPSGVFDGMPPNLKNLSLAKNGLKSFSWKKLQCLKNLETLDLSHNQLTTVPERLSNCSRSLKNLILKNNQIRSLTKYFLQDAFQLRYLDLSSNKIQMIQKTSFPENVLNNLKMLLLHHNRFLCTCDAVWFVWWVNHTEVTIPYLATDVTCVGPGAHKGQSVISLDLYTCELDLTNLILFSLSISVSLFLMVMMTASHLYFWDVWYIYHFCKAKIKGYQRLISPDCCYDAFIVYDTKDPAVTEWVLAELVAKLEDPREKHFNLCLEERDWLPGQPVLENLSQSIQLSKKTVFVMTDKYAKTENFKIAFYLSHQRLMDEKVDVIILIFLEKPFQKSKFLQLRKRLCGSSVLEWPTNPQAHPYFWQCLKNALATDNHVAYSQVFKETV
Put plainly: HEK293-Blue hTLR7 Reporter Assay (QUANTI-BLUE, SEAP readout). The assay is classed as cell-based. The following applies: HEK-Blue-hTLR7 cells, 24 hrs treatment, Table 1, B1-B232. The method, then:
HEK293-Blue hTLR7 Reporter Assay: HEK-Blue-hTLR7 cell line (Invivogen, Cat. No. hkb-htlr7) was designed so that the expression of the secreted embryonic alkaline phosphatase (SEAP) was induced by activating NF-κ and AP-1 via stimulating human TLR7 with TLR7 agonists. HEK-Blue-hTLR7 cells were seeded at a density of 4×10^4 cells/well in a volume of 180 μL in a 96-well plate in DMEM (Cat. No. 11965-092) supplemented with 10% (v/v) heat-inactivated fetal bovine serum (FBS) (Gibco, 10099-1441), 100 U/ml penicillin and 100 μg/ml streptomycin (Gibco, 15140122) containing 50 U/mL penicillin, […] and 10% (v/v) heat-inactivated fetal bovine serum. The cells were settled for 5 hrs, then treated with increasing amounts of tested compounds at 37° C. for 24 hrs. Then 20 μL of the supernatant from each well was incubated with 180 μL Quanti-blue substrate solution at 37° C. for 10-30 mins before the activity of the SEAP was determined at 620-655 nm using a spectrophotometer. The EC50 value for each compound was calculated with GraphPad Prism software using the sigmoidal dose-response function.
In general terms: Reporter assays use an easily measured gene product as a stand-in for the process of interest.
“1-((4-amino-7-((5-methyl-6-(piperazin-1-yl)pyridin-3-yl)methyl)imidazo[2,1-f][1,2,4]triazin-2-yl)oxy)hexan-3-ol [Compound B157]”: the response was half-maximal at 667 nM (EC50). As to “2-butoxy-7-((5-(piperidin-4-yl)pyridin-2-yl)methyl)imidazo[2,1-f][1,2,4]triazin-4-amine [Compound B77]”, the EC50 came out at 311 nM. As for “2-butoxy-7-((5-methyl-6-(2,7-diazaspiro[3.5]nonan-7-yl)pyridin-3-yl)methyl)imidazo[2,1-f][1,2,4]triazin-4-amine [Compound B86]”, the midpoint of the response, the EC50, lay at 202 nM. “2-butoxy-7-((6-(4-ethylpiperazin-1-yl)-5-methylpyridin-3-yl)methyl)imidazo[2,1-f][1,2,4]triazin-4-amine [Compound B115]” yielded an EC50 of 190 nM. The same measure, in the same setting: then “2-butoxy-7-((6-(piperidin-4-yl)-5-(trifluoromethyl)pyridin-3-yl)methyl)imidazo[2,1-f][1,2,4]triazin-4-amine [Compound B28]”, with 302 nM. In turn, “2-butyl-7-((5-methyl-6-(piperazin-1-yl)pyridin-3-yl)methyl)imidazo[2,1-f][1,2,4]triazine-2,4-diamine [Compound B13]” registered an EC50 of 48 nM. `CCC[C@H](C)Nc1nc(N)c2ncc(Cc3cnc(N4CCNCC4)c(C)c3)n2n1` (single isomer, unassigned) [Compound B148] yielded an EC50 of 6.5 nM. Still for that read-out and setting: the value for `CCC[C@H](C)Nc1nc(N)c2ncc(Cc3cnc(N4CCC(N(C)C)CC4)c(C)c3)n2n1` (single isomer, unassigned) [Compound B173] was 2.3 nM; that for `CCC[C@@H](C)Nc1nc(N)c2ncc(Cc3cnc(N4CCC(CN(C)C)CC4)c(C)c3)n2n1` (single isomer, unassigned) [Compound B178] was 17 nM; that for `CCC[C@@H](C)Nc1nc(N)c2ncc(Cc3cnc(N4CCC(N(C)C)CC4)c(C)c3)n2n1` (single isomer, unassigned) [Compound B185] was 25 nM. Same read-out and setting: then `CCC[C@@H](C)Nc1nc(N)c2ncc(Cc3cnc(N4CCNCC4)c(C)c3)n2n1` (single isomer, unassigned) [Compound B207], with 56 nM; and `CCC[C@@H](C)Nc1nc(N)c2ncc(Cc3cnc(N4CCC(CNC)CC4)c(C)c3)n2n1` (single isomer, unassigned) [Compound B214], with 23 nM.

Compound `CCC[C@H](C)Oc1nc(N)c2ncc(Cc3cnc(N4CCC(CNC)CC4)c(C)c3)n2n1` (single isomer, unassigned) [Compound B221] came in with an EC50 of 3.9 nM. In turn, `CCC[C@@H](C)Oc1nc(N)c2ncc(Cc3cnc(N4CCC(CNC)CC4)c(C)c3)n2n1` (single isomer, unassigned) [Compound B222] returned an EC50 of 60 nM. This EC50 is about 15-fold higher than that of the compound before. `CCC[C@H](CC)Oc1nc(N)c2ncc(Cc3cnc(N4CCNCC4)c(C)c3)n2n1` (single isomer, unassigned) [Compound B224]: the EC50 turned out to be 5.1 nM. Regarding `CCC[C@@H](CC)Oc1nc(N)c2ncc(Cc3cnc(N4CCNCC4)c(C)c3)n2n1` (single isomer, unassigned) [Compound B225], a half-maximal effect (EC50) was put at 26 nM. With `CCCCOc1nc(N)c2ncc(Cc3cnc(N4CCN(C)CC4)c(Cl)c3)n2n1` [Compound B1, 2-butoxy-7-((5-chloro-6-(4-methylpiperazin-1-yl)pyridin-3-yl)methyl)imidazo[2,1-f][1,2,4]triazin-4-amine], it took 501 nM to reach a half-maximal effect (EC50). This EC50 lies about 19-fold higher than the previous one.

Consider `CCCCOc1nc(N)c2ncc(Cc3cnc(N4CCNCC4)c(Cl)c3)n2n1` [Compound B2, 2-butoxy-7-((5-chloro-6-(piperazin-1-yl)pyridin-3-yl)methyl)imidazo[2,1-f][1,2,4]triazin-4-amine], for which a half-maximal effect (EC50) was put at 434 nM. Regarding `CCCCOc1nc(N)c2ncc(Cc3ccc(C4CCNCC4)cc3)n2n1` [Compound B3, 2-butoxy-7-(4-(piperidin-4-yl)benzyl)imidazo[2,1-f][1,2,4]triazin-4-amine], the midpoint of the response, the EC50, lay at 327 nM. `C=CC(=O)N1CCN(c2ncc(Cc3cnc4c(N)nc(OCCCC)nn34)cc2Cl)CC1` [Compound B4, 1-(4-(5-((4-amino-2-butoxyimidazo[2,1-f][1,2,4]triazin-7-yl)methyl)-3-chloropyridin-2-yl)piperazin-1-yl)prop-2-en-1-one] gave an EC50 greater than 10000 nM. The compound `COCCOc1nc(N)c2ncc(Cc3cnc(N4CCNCC4)c(Cl)c3)n2n1` [Compound B5, 7-((5-chloro-6-(piperazin-1-yl)pyridin-3-yl)methyl)-2-(2-methoxyethoxy)imidazo[2,1-f][1,2,4]triazin-4-amine] registered an EC50 of 1230 nM. Same read-out and setting: then `CCCCOc1nc(N)c2ncc(Cc3ccc(N4CCNCC4)nc3)n2n1` [Compound B6, 2-butoxy-7-((6-(piperazin-1-yl)pyridin-3-yl)methyl)imidazo[2,1-f][1,2,4]triazin-4-amine], with 421 nM.

`CCCCOc1nc(N)c2ncc(Cc3cnc(N4CCNCC4)cc3Cl)n2n1` [Compound B7, 2-butoxy-7-((4-chloro-6-(piperazin-1-yl)pyridin-3-yl)methyl)imidazo[2,1-f][1,2,4]triazin-4-amine] gave an EC50 of 2380 nM. Against the preceding compound, the EC50 is about 5.7-fold higher. Consider `CCCCOc1nc(N)c2ncc(Cc3cnc(N4CCNCC4)c(C)c3)n2n1` [Compound B8, 2-butoxy-7-((5-methyl-6-(piperazin-1-yl)pyridin-3-yl)methyl)imidazo[2,1-f][1,2,4]triazin-4-amine], for which a half-maximal effect (EC50) was put at 136 nM. Compared with the last compound, the EC50 is about 18-fold lower. On the same count and under the same terms, then `CCCCOc1nc(N)c2ncc(Cc3cnc(N4CCNCC4)c(F)c3)n2n1` [Compound B9, 2-butoxy-7-((5-fluoro-6-(piperazin-1-yl)pyridin-3-yl)methyl)imidazo[2,1-f][1,2,4]triazin-4-amine], with 345 nM; and `CCCCOc1nc(N)c2ncc(Cc3cnc(N4CCNCC4)c(C(F)(F)F)c3)n2n1` [Compound B10, 2-butoxy-7-((6-(piperazin-1-yl)-5-(trifluoromethyl)pyridin-3-yl)methyl)imidazo[2,1-f][1,2,4]triazin-4-amine], with 417 nM. `CCCCOc1nc(N)c2ncc(Cc3cnc(N4CCNCC4)c(OC)c3)n2n1` [Compound B11, 2-butoxy-7-((5-methoxy-6-(piperazin-1-yl)pyridin-3-yl)methyl)imidazo[2,1-f][1,2,4]triazin-4-amine] gave an EC50 of 247 nM. Same read-out and setting: then `CCCCOc1nc(N)c2ncc(Cc3cnc(N4CCN(C(=O)CN(C)C)CC4)c(C)c3)n2n1` [Compound B12, 1-(4-(5-((4-amino-2-butoxyimidazo[2,1-f][1,2,4]triazin-7-yl)methyl)-3-methylpyridin-2-yl)piperazin-1-yl)-2-(dimethylamino)ethan-1-one], with 44 nM; and `CCCCOc1nc(N)c2ncc(Cc3ccc(C4CCN(C(=O)CN(C)C)CC4)cc3)n2n1` [Compound B14, 1-(4-(4-((4-amino-2-butoxyimidazo[2,1-f][1,2,4]triazin-7-yl)methyl)phenyl)piperidin-1-yl)-2-(dimethylamino)ethan-1-one], with 96 nM. On the same count and under the same terms, then `CCCCOc1nc(N)c2ncc(Cc3ccc(C4CCNCC4)cn3)n2n1` [Compound B15, 2-butoxy-7-((5-(piperidin-4-yl)pyridin-2-yl)methyl)imidazo[2,1-f][1,2,4]triazin-4-amine], with 509 nM.

Still in this assay, the particulars now being: HEK-Blue-hTLR7 cells, Table 2, C1-C6.
As for “6-propoxy-3-(4-(pyrrolidin-1-ylmethyl)benzyl)imidazo[1,2-b]pyridazin-8-amine [Compound C4]”, the EC50 was greater than 10000 nM.
